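These data come from cells grown in 96-well plates and exposed to compound for 48 hours at five concentrations. At the GI50, growth is halved.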 Calls of active or inactive are those of the source. Cut-off read from the data, not from the text of the source: active = GI50 up to about 1.1 µM and inactive = higher.
Key:
Assay in all cases: NCI-60 cell line screen, 48 h
[1] = tested on: MCF7
[2] = tested on: HOP-92
[3] = tested on: RXF 393
[4] = tested on: SK-OV-3
[5] = tested on: 786-0
[6] = tested on: OVCAR-4
[7] = tested on: EKVX
[8] = tested on: BT-549
[9] = tested on: RPMI-8226
[10] = tested on: SNB-75
[11] = tested on: PC-3
[12] = tested on: Hs-578T
[13] = tested on: SK-MEL-2
[14] = tested on: SF-268
[15] = tested on: SNB-19
[16] = tested on: T47D
[17] = tested on: M14
[18] = tested on: K562
[19] = tested on: UO-31
[20] = tested on: ACHN

Row | SMILES | GI50 [1] | GI50 [2] | GI50 [3] | GI50 [4] | GI50 [5] | GI50 [6] | GI50 [7] | GI50 [8] | GI50 [9] | GI50 [10] | GI50 [11] | GI50 [12] | GI50 [13] | GI50 [14] | GI50 [15] | GI50 [16] | GI50 [17] | GI50 [18] | GI50 [19] | GI50 [20]
1 | Clc1ccc(-c2nc3cc(C45CC6CC(CC(C6)C4)C5)ccc3[nH]2)cc1 | 18.5 µM (inactive) | 17.7 µM (inactive) | 72.6 µM (inactive) | > 100 µM (inactive) | 39.4 µM (inactive) | 60.5 µM (inactive) | > 94.2 µM (inactive) | 56.6 µM (inactive) | 4.21 µM (inactive) | > 100 µM (inactive) | 14.3 µM (inactive) | 62.7 µM (inactive) | > 100 µM (inactive) | > 100 µM (inactive) | 44.4 µM (inactive) | 24.2 µM (inactive) | 17 µM (inactive) | < 0.01 µM (active) | 15.3 µM (inactive) | 51.8 µM (inactive)
2 | O=c1[nH]c(=O)n([C@H]2C[C@H](O)[C@@H](CO)O2)cc1Br [BROXURIDINE] | 17.7 µM (inactive) | > 100 µM (inactive) | > 100 µM (inactive) | > 100 µM (inactive) | > 100 µM (inactive) | > 100 µM (inactive) | > 100 µM (inactive) | > 100 µM (inactive) | 49.9 µM (inactive) | > 100 µM (inactive) | > 100 µM (inactive) | > 100 µM (inactive) | > 100 µM (inactive) | > 100 µM (inactive) | > 100 µM (inactive) | > 100 µM (inactive) | > 86.7 µM (inactive) | > 72.4 µM (inactive) | > 100 µM (inactive) | > 100 µM (inactive)
3 | O=C(O)CC(CC(=O)O)C(=O)O [TRICARBALLYLIC ACID] | > 100 µM (inactive) | > 100 µM (inactive) | > 100 µM (inactive) | > 100 µM (inactive) | > 100 µM (inactive) | > 100 µM (inactive) | > 100 µM (inactive) | > 100 µM (inactive) | > 100 µM (inactive) | > 100 µM (inactive) | > 100 µM (inactive) | > 100 µM (inactive) | > 100 µM (inactive) | > 100 µM (inactive) | > 100 µM (inactive) | > 100 µM (inactive) | > 100 µM (inactive) | > 100 µM (inactive) | > 100 µM (inactive) | > 100 µM (inactive)

Source: ChEMBL document CHEMBL1201862, “PubChem BioAssay data set” (2004)
